How the values were obtained:
Assay type in all cases: in vivo
[1] = tested on: Diamondback Moth (Plutella xylostella, PLUTMA); assay: Bioassay 9: Diamondback Moth, leaves of track-sprayed cabbage plants, mortality and feeding damage scored
Description: where X=No. of live nymphs on solvent check plants and Y=No. of live nymphs on treated plants. In Table B2 the “Expected % Control” was calculated using the method described in Colby S. R., Weeds, 1967, 15, 20-22. Bioassay 9: Diamondback Moth (Plutella xylostella, PLUTMA) (DBM).
Stock solutions were prepared with Formula One as well as for each of the active ingredients individually. Test solutions were prepared from the stock solutions. Test solutions were prepared containing Formula One, the individual active ingredients, and mixtures of Formula One with each of the active ingredients. The test solution for Formula One was prepared by adding 500 μL of the stock solution to a 25 mL glass vial, then adding 500 μL of a 9:1 mixture of acetone: water. The individual active ingredients were prepared by adding 500 μL of stock solution to a 25 mL glass vial, then adding 500 μL of a 9:1 mixture of acetone: water. The test solutions containing mixtures of Formula One and the individual active ingredients were prepared by adding 500 μL of the active ingredient stock solution to a 25 mL glass vial, followed by 500 μL of the Formula One stock solution, creating a test solution containing 4000 ppm Formula One and 0.4% (w/v) of the active ingredient. Each test solution was serially diluted to create desired doses of test solutions (0.4% (w/v), 0.04% (w/v), 0.004% (w/v), 0.0004% (w/v), 0.00004% (w/v), and 0.000004% (w/v)). In test solutions containing mixtures of Formula One and the active ingredients, the active ingredients were diluted as described above, but the Concentration of Formula One was held constant (0.4% (w/v)). The highest dose test solution (0.4% (w/v)) was discarded, leaving 5 test solution concentrations used in the test.
Cabbage seedlings, grown in 3-inch pots with 2-3 small (3-5 centimeter (cm)) true leaves, were used as test substrate. Cabbage plants were sprayed with desired concentrations of Formula One and active ingredients or their mixtures using a track Sprayer. Reference plants (solvent check) were sprayed with diluent only (0.025% Tween® 20 and 10% acetone:methanol (1:1) in water). The sprayed cabbage plants were allowed to dry for 1 hour, after which leaves from each treatment were placed in a cell of a plastic tray. One leaf per cell and 8 replicates for each cell. The tested doses ranged between 0.000001% (w/v) to 0.0002% (w/v). One 2nd instar DBM larvae were placed in each cell of the tray and allowed to feed on the cabbage foliage for […] after which the mortality and feeding damage were scored. Test trays were held at approximately 26° C. and ambient relative humidity (RH) prior to grading. The number of live larvae were recorded from each cell and percent control was measured using Abbott's correction formula (W. S. Abbott, J. Econ. Entomol. 18 (1925), pp. 265-267) as follows:
where X=No. of live larvae on solvent check and Y=No. of live larvae on treated diet. In Table B6 the “Expected % Control” was calculated using the method described in Colby S. R., Weeds, 1967, 15, 20-22.

[2] = tested on: Cotton Aphid (Aphis gossypii, APHIGO); assay: Bioassay 7: Cotton Aphid, foliar spray on infested cotton seedlings, live aphids counted three days after treatment; settings: AI alone 5 (10^-5) Wt %
Description: where X=No. of live larvae on solvent check and Y=No. of live larvae on treated diet. In Table B6 the “Expected % Control” was calculated using the method described in Colby S. R., Weeds, 1967, 15, 20-22. Bioassay 7: Cotton Aphid (Aphis gossypii, APHIGO) (“CA”).
Stock solutions of Formula One and one or more of the active ingredients were prepared at concentrations of 1 mg/mL using a 1:1 mixture of acetone: methanol as a diluent. The stock solutions were prepared with Formula One as well as for each of the active ingredients individually. Test solutions were prepared from the stock solutions. Test solutions were prepared containing Formula One, the individual active ingredients, and mixtures of Formula One with each of the active ingredients. The test solutions for Formula One and the individual active ingredients were prepared by adding 1.5 mL of stock solution to a 30 mL glass vial, then adding 1.5 mL of 1:1 acetone: methanol solvent, followed by the addition of 27 mL water with 0.025% Tween® 20 to create a […]. Each test solution was serially diluted to create desired doses of test solutions ranging from 0.000001 to 0.0025% (w/v). The test solutions were tested against CA using the following procedure: cotton seedlings were grown in 3-inch pots with one true leaf (2-5 cm in diameter) were used as test substrate. The seedlings were infested with 20-50 CA (wingless adult and nymph stages) one day prior to chemical application. Four pots with individual seedlings were used for each treatment. A hand-held aspirator-type sprayer was used for spraying a solution to both sides of […] leaves until runoff. Reference plants (solvent check) were sprayed with the diluent only (0.025% Tween® 20 and 10% acetone:methanol (1:1) in water). Treated plants were held in a holding room for three days at approximately 25° C. and ambient relative humidity (RH about 20% to about 45%) prior to grading. Evaluation was conducted by counting the number of live aphids per plant under a microscope three days after treatment. Percent control was measured using Abbott's correction formula (W. S. Abbott, J. Econ. Entomol. 18 (1925), pp. 265-267) as follows:
where X=No. of live aphids on solvent check plants and Y=No. of live aphids on treated plants. In Table B1 the “Expected % Control” was calculated using the method described in Colby S. R., Weeds, 1967, 15, 20-22. Bioassay 8: Sweet Potato Whitefly (Bemisia tabaci, BEMITA) (“SPW”).

[3] = tested on: Western Tarnished Plant Bug (Lygus hesperus, LYGUHE); assay: Bioassay 4: Western Tarnished Plant Bug, soaked green bean segments, living nymphs 3 days after application; settings: AI alone 0.005 % w/v
Description: (§1) where X=No. of live nymphs on solvent check leaf discs and Y=No. of live nymphs on treated leaf discs. In Table B3 the “Expected % Control” was calculated using the method described in Colby S. R., Weeds, 1967, 15, 20-22. Bioassay 4: Western Tarnished Plant Bug (Lygus hesperus, LYGUHE) (“WTPB”).
(§2) Stock solutions were prepared with Formula One as well as for each of the active ingredients individually. Test solutions were prepared from the stock solutions. Test solutions were prepared containing Formula One, the individual active ingredients, and mixtures of Formula One with each of the active ingredients. The test solution for Formula One was prepared by adding 500 μL of the stock solution to a 25 mL glass vial, then adding 500 μL of acetone, followed by the addition of 9 mL water with 0.025% Tween®) 20 to create a 0.04% (w/v) solution. The test solutions of the individual active ingredients were prepared by adding 500 μL of stock solution to a 25 mL glass vial, then adding 500 μL of acetone, followed by the addition of 9 mL water with 0.025% Tween®) 20 to create a 0.005% (w/v) solution. The test solutions containing mixtures of Formula One and the individual active ingredients were prepared by adding 500 μL of the active ingredient stock solution to a 25 mL glass vial, followed by 500 μL of the Formula One stock solution, then by the addition of 9 mL water with 0.025% Tween®) 20 to create a test solution containing 0.04% (w/v) Formula One and 0.005% (w/v) of the active ingredient. Each test solution was serially diluted to create desired doses of test solutions (0.005% (w/v), 0.00125% (w/v), 0.0003125% (w/v), 0.000078% (w/v), and 0.0000195% (w/v)). In test solutions containing mixtures of Formula One and the active ingredients, the active ingredients were diluted as described above, but the Concentration of Formula One was held constant (0.04% (w/v)).
The test solutions were tested against WTPB using the following procedure: Fresh green beans were cut into segments approximately 1.5 inches long. Four bean segments were added to each 25 mL vial containing the test solutions and soaked for approximately 15 minutes. After soaking, a single bean fragment was removed and placed into a single well of a 32-well rearing tray (Frontier Agricultural Sciences™), on top of a round filter paper disc. A reference treatment (solvent check) was treated with the diluent only. Each treatment was replicated four times and the test treatments were held at approximately 26° C. and ambient relative humidity (RH) prior to grading. Bean segments were allowed to air dry for ˜30 minutes. Three WTPB nymphs were added to and contained in each well with a clear perforated adhesive lid. The total number of living WTPB nymphs was recorded 3 days after application. Scoring was based off the total number of living nymphs out of all four replicates. Percent control was measured using Abbott's correction formula (W. S. Abbott, J. Econ. Entomol. 18 (1925), pp. 265-267) as follows:
X=No. of live nymphs on solvent check and Y=No. of live nymphs on treated bean segments. In Table B4 the “Expected % Control” was calculated using the method described in Colby S. R., Weeds, 1967, 15, 20-22. Bioassay 5: Neotropical Brown Stink Bug (Euschistus heros, EUSCHE) (“BSB”).

[4] = tested on: Western Flower Thrips (Frankliniella occidentalis, FRANOC); assay: Bioassay 3: Western Flower Thrips, cotton leaf disc dip, live WFT counted 3 days after treatment; settings: AI alone 0.0003125 % w/v
Description: as §2, with “Stock solutions of Formula One and various active ingredients were prepared initially at a concentration of 8 mg/ml for Formula One and 1 mg/mL for the active ingredients, respectively, using acetone as a diluent. Stock” for “Stock”
The test solutions were tested against WFT using the following procedure: Leaf discs (2.7 cm in diameter) were cut from the true leaves of cotton plants. Leaf discs were dipped into the test solutions and shaken to ensure complete coverage of the leaf disc and then placed in Millipore®) PetriSlides containing a filter paper disc. Treated leaf discs were air dried for approximately 1 hour. Each leaf disc was infested with 5 WFT (9-10-day old nymphs) by placement on each leaf disc, and the PetriSlides were capped to prevent escape. Each treatment was replicated three times and the test treatments were held at approximately 26° C. and ambient relative humidity (RH) prior to grading. Reference discs (solvent check) were treated with the diluent only. Evaluation was conducted by counting the number of live WFT under magnification 3 days after treatment. Percent control was measured using Abbott's correction formula (W. S. Abbott, J. Econ. Entomol. 18 (1925), pp. 265-267) as follows:
as §1

| SMILES | Average % Control AI ([1]; AI alone 5 (10^-5) Wt %) [%] | Average % Control AI ([1]; AI alone 10 (10^-5) Wt %) [%] | Average % Control AI ([1]; AI alone 20 (10^-5) Wt %) [%] | Average % Control A1 [2] [%] | Average % Control AI [3] [%] | Average % Control AI [4] [%] |
| --- | --- | --- | --- | --- | --- | --- |
| CC1(C)C(C=C(Cl)Cl)C1C(=O)OC(C#N)c1ccc(F)c(Oc2ccccc2)c1 (stereo not drawn) [Beta-Cyfluthrin] | 13.64 | 27.27 | 72.73 | 21.34 | – | – |
| O=c1c(-c2cccc(C(F)(F)F)c2)c([O-])[n+](Cc2cncnc2)c2ccccn12 [Triflumezopyrim] | – | – | – | – | 9 | 7 |
